Data from PMC7363588, “Mapping of the FGF14:Nav1.6 complex interface reveals FLPK as a functionally active peptide modulating excitability” (Physiological Reports, 2020).
Entries after “also recorded” stand apart in the source; their conditions may differ. Peptide text beside a SMILES is read from it.

System: persistent sodium current (I NaP) from MSNs in the nucleus accumbens
Assay: Brain slice voltage-clamp: persistent Na^+ current (I NaP) in MSNs
Assay type: cell-based, male C57BL6/J mice
Procedure: Brain slices from male C57BL6/J mice aged 28–45 days were prepared to contain the nucleus accumbens (NAc). Mice were anesthetized with Isoflurane (Baxter, Deerfield, IL) and brains extracted following decapitation. Brains were sliced with a vibratome (Leica Microsystems, Wetzlar, Germany) to achieve 300 μm coronal slices. Brains sliced in extracellular salts; consisting of the following (mM): Tris‐HCl 72, Tris‐Base18, NaH2PO4 1.2, KCl 2.5, HEPES 20, sucrose 20, NaHCO3 25, glucose 25, MgSO4 10, Na‐pyruvate 3, Na‐ascorbate 5 and CaCl2 0.5 (Sigma‐Aldrich, St. Louis, MO); 300–310 mOsm, pH 7.4 and was continuously oxygenated (mixture of 95%/5% O2/CO2). […] Evoked action potentials with a range of current injections from 10 pA to 220 pA with 800 ms every 10 pA were measured and number of action potentials, instantaneous frequency, and other electrical parameters were determined. […] The voltage‐dependence of I NaP was determined using standard protocols (Yue, Remy, Su, Beck, & Yaari, 2005). […] Membrane capacitance was calculated using the equation: capacitance = membrane time constant/input resistance (Meitzen, Weaver, Brenowitz, & Perkel, 2009). The membrane input resistance was measured by a series of 600 ms hyperpolarizing current steps from −50 to 0 pA, step 10 pA with 1 s interval. […]

Compound: CC(=O)N[C@@H](Cc1ccccc1)C(=O)N[C@@H](CC(C)C)C(=O)N1CCC[C@H]1C(=O)N[C@@H](CCCCN)C(N)=O [FLPK] (Ac-FLPK-NH2)
- effect on I NaP (50 µM FLPK vs 0.1% DMSO): increase in persistent sodium current; also recorded: potentiated persistent Na^+ currents
- persistent sodium current (I NaP) (50 µM FLPK, slow voltage ramps (50 mV/s), TTX-subtracted, control 111.4 ± 15.7 pA, p < .03, n = 14): −158.2 ± 14.2 pA
